Results taken from ChEMBL document CHEMBL4043153, “Lead selection of antiparasitic compounds from a focused library of benzenesulfonyl derivatives of heterocycles” (Bioorg Med Chem Lett, 2017).
The source made the active and inactive calls. The calls are words filed in the database; no cut-off is given here.

Columns and labels:
[1] = test system: Leishmania donovani; assay: Antiparasitic activity against Leishmania donovani MHOM-ET-67/L82 axenic amastigotes assessed as growth inhibition at 4.8 ug/ml after 72 hrs by resazurin dye-based fluorometric analysis relative to control; assay type: functional; conditions: MHOM-ET-67/L82, 72 h, read-out: GI
[2] = test system: Trypanosoma cruzi; assay: Antiparasitic activity against Trypanosoma cruzi Tulahuen C4 intracellular amastigotes infected in rat L6 cells assessed as growth inhibition at 0.8 ug/ml after 96 hrs by CPRG/Nonidet reagent based photometric analysis relative to control; assay type: functional; conditions: Tulahuen C4, L6, 96 h, read-out: GI
[3] = test system: L6; assay: Cytotoxicity against rat L6 cells assessed as cell viability after 72 hrs by Alamar blue assay; assay type: cell-based; conditions: L6, 72 h
[4] = test system: Trypanosoma brucei rhodesiense; assay: Antiparasitic activity against Trypanosoma brucei rhodesiense STIB 900 trypomastigote bloodstream form assessed as growth inhibition at 0.8 ug/ml after 72 hrs by resazurin dye-based fluorometric analysis relative to control; assay type: functional; conditions: STIB 900, 72 h, read-out: GI
[5] = test system: Plasmodium falciparum; assay: (§1) Antiparasitic activity against intraerythrocytic form of chloroquine/pyrimethamine-resistant Plasmodium falciparum K1 infected in human RBC assessed as growth inhibition at 4.8 ug/ml preincubated for 48 hrs followed by [3H]-hypoxanthine addition measured after 24 hrs by liquid scintillation counting analysis relative to control; assay type: functional; conditions: read-out: GI
[6] = test system: Plasmodium falciparum; assay: as §1, with “0.8” for “4.8”; assay type: functional; conditions: read-out: GI
[7] = test system: Leishmania donovani; assay: Antiparasitic activity against Leishmania donovani MHOM-ET-67/L82 axenic amastigotes assessed as growth inhibition at 0.8 ug/ml after 72 hrs by resazurin dye-based fluorometric analysis relative to control; assay type: functional; conditions: MHOM-ET-67/L82, 72 h, read-out: GI
[8] = test system: Trypanosoma brucei rhodesiense; assay: Antiparasitic activity against Trypanosoma brucei rhodesiense STIB 900 trypomastigote bloodstream form assessed as growth inhibition at 4.8 ug/ml after 72 hrs by resazurin dye-based fluorometric analysis relative to control; assay type: functional; conditions: STIB 900, 72 h, read-out: GI
[9] = test system: Trypanosoma cruzi; assay: Antiparasitic activity against Trypanosoma cruzi Tulahuen C4 intracellular amastigotes infected in rat L6 cells assessed as growth inhibition at 4.8 ug/ml after 96 hrs by CPRG/Nonidet reagent based photometric analysis relative to control; assay type: functional; conditions: Tulahuen C4, L6, 96 h, read-out: GI
[10] = Selectivity index, ratio of IC50 for rat L6 cells to IC50 for Trypanosoma cruzi Tulahuen C4 intracellular amastigotes infected in rat L6 cells; assay type: toxicity, cell-based; conditions: read-out: Ratio IC50
[11] = test system: Trypanosoma cruzi; assay: Antiparasitic activity against Trypanosoma cruzi Tulahuen C4 intracellular amastigotes infected in rat L6 cells after 96 hrs by CPRG/Nonidet reagent based photometric analysis; assay type: functional, cell-based; conditions: Tulahuen C4, L6, 96 h
[12] = test system: Plasmodium falciparum; assay: Antiparasitic activity against intraerythrocytic form of chloroquine/pyrimethamine-resistant Plasmodium falciparum K1 infected in human RBC preincubated for 48 hrs followed by [3H]-hypoxanthine addition measured after 24 hrs by liquid scintillation counting analysis; assay type: functional

Row | SMILES | inhibition of growth at 4.8 µg/mL [1] | inhibition of growth at 0.8 µg/mL [2] | IC50 [3] | inhibition of growth at 0.8 µg/mL [4] | inhibition of growth at 4.8 µg/mL [5] | inhibition of growth at 0.8 µg/mL [6] | inhibition of growth at 0.8 µg/mL [7] | inhibition of growth at 4.8 µg/mL [8] | inhibition of growth at 4.8 µg/mL [9] | selectivity ratio [10] | IC50 [11] | Activity [12]
1 | O=[N+]([O-])c1cccc(S(=O)(=O)N2CCc3ccccc32)c1 | 95.4% | 36.4% | 15.1 µM | 0% | 79.2% | 14.7% | 15.9% | 4.3% | 100% | 14 | 1.08 µM | –
2 | CC1Cc2ccccc2N1S(=O)(=O)c1ccccc1 (stereo unspecified) | 27.9% | 0% | – | 4.6% | 46.4% | 13.2% | 12.5% | 0% | 5.2% | – | – | Active
3 | O=[N+]([O-])c1ccc(S(=O)(=O)n2ccc3ccccc32)cc1 | 77.6% | 18.3% | – | 8.6% | 60.4% | 2.5% | 24.2% | 29.3% | 75% | – | – | Active
4 | CC1Cc2ccccc2N1S(=O)(=O)c1ccc(Br)cc1 (stereo unspecified) | 81.4% | 0% | 13.2 µM | 0% | 76% | 9.1% | 17.6% | 0.9% | 100% | 2.29 | 5.76 µM | –
5 | CC1Cc2ccccc2N1S(=O)(=O)c1ccc(C(F)(F)F)cc1 (stereo unspecified) | 86.2% | 0% | – | 0% | 91.4% | 12.7% | 17.9% | 1.2% | 54.6% | – | – | –
6 | CC(=O)c1ccc(S(=O)(=O)n2nnc3ccccc32)cc1 | 41.6% | 0% | – | 2.8% | 5.6% | 0% | 17.3% | 4.9% | 6.1% | – | – | –
7 | CC(C)(C)c1ccc(S(=O)(=O)N2CCCc3ccccc32)cc1 | 99.1% | 0% | – | 6.7% | 91.6% | 23.5% | 49.8% | 5.5% | 55.6% | – | – | –
8 | CC1Cc2ccccc2N1S(=O)(=O)c1cccc([N+](=O)[O-])c1 (stereo unspecified) | 66.2% | 2.5% | – | 7% | 62.6% | 14.9% | 26% | 12.6% | 31.6% | – | – | –
9 | O=[N+]([O-])c1ccccc1S(=O)(=O)N1CCc2ccccc21 | 81.5% | 0% | – | 10.4% | 48% | 4% | 4% | 17.9% | 24.5% | – | – | –
10 | CC(=O)c1ccc(S(=O)(=O)n2ccc3ccccc32)cc1 | 25.9% | 0% | – | 2.2% | 40.8% | 12.2% | 0% | 0% | 0% | – | – | –
11 | CC(=O)Nc1ccc(S(=O)(=O)N2c3ccccc3CC2C)cc1 (stereo unspecified) | 14.7% | 0% | – | 0% | 15.6% | 4.2% | 6.4% | 1.7% | 46.7% | – | – | –
12 | O=S(=O)(c1ccccc1)n1ccc2ccccc21 | – | – | – | – | – | – | – | – | – | – | – | Active
13 | Cc1ccc(S(=O)(=O)N2CCc3ccccc32)cc1 | 63.7% | 0% | – | 3.1% | 20% | 0% | 8.1% | 0% | 14.4% | – | – | –
14 | O=S(=O)(c1ccc(C(F)(F)F)cc1)n1nnc2ccccc21 | 44.8% | 5.5% | – | 3.4% | 1% | 0% | 21.8% | 0.4% | 3% | – | – | –
15 | O=[N+]([O-])c1ccccc1S(=O)(=O)n1nnc2ccccc21 | 89.4% | 7.3% | – | 0% | 0% | 0% | 32.7% | 1.3% | 7.1% | – | – | –
16 | O=S(=O)(c1ccccc1)n1nnc2ccccc21 | – | – | – | – | – | – | – | – | – | – | – | Active
17 | O=[N+]([O-])c1ccccc1S(=O)(=O)N1CCCc2ccccc21 | 50.1% | 0% | – | 6.2% | 38% | 3.5% | 10.1% | 17.1% | 26.9% | – | – | –
18 | O=S(=O)(c1ccc(C(F)(F)F)cc1)N1CCc2ccccc21 | 68.8% | 3.4% | – | 2.2% | 59.8% | 0% | 12.6% | 0% | 10.8% | – | – | –
19 | CC(C)(C)c1ccc(S(=O)(=O)N2CCc3ccccc3C2)cc1 | 100% | 0% | – | 10.8% | 86% | 11.6% | 31.6% | 8.7% | 26.7% | – | – | –
20 | CC(=O)c1ccc(S(=O)(=O)N2c3ccccc3CCC2C)cc1 (stereo unspecified) | 45.7% | 0% | – | 0% | 29.8% | 4% | 6% | 1.5% | 91.9% | – | – | –
21 | O=[N+]([O-])c1ccc(S(=O)(=O)n2nnc3ccccc32)cc1 | – | – | – | – | – | – | – | – | – | – | – | Active
22 | O=S(=O)(c1cccc(C(F)(F)F)c1)N1CCCc2ccccc21 | 73.1% | 10.4% | – | 2.4% | 68% | 6.6% | 23.7% | 2.5% | 62.6% | – | – | –
23 | CC(=O)c1ccc(S(=O)(=O)N2c3ccccc3CC2C)cc1 (stereo unspecified) | 26.8% | 0% | – | 0% | 46.3% | 7.3% | 0% | 0.4% | 23.7% | – | – | –
24 | O=S(=O)(c1ccccc1)N1CCc2ccccc21 | 45.3% | 0% | – | 0% | 29.1% | 2.9% | 7.4% | 0% | 10% | – | – | Active
25 | CC1Cc2ccccc2N1S(=O)(=O)c1cccc(C(F)(F)F)c1 (stereo unspecified) | 77.6% | 0% | – | 0% | 77.1% | 15.1% | 13.5% | 0% | 5.7% | – | – | –
26 | O=S(=O)(c1cccc(C(F)(F)F)c1)n1ccc2ccccc21 | 45.7% | 0% | – | 0% | 61.1% | 5% | 11.7% | 0% | 3.3% | – | – | –
